Experimental data from the OligoGym collection.
Bases are written 5' to 3'; sugars and linkages follow in the same order, as letters with counts (s phosphorothioate, o phosphodiester; PS: all linkages phosphorothioate). C may stand for cytosine or 5-methylcytosine; the collection does not tell. l = locked nucleic acid (LNA); d = 2'-deoxy (DNA)

Target: HIF1A
Experiment: HeLa, 100 nM transfected, 24 h, mean of 3
Conditions: ASO

Sequence | caspase activation (% of PBS control)
GTTACTGCCTTCTTAC (sugars ldddlddddddldldl, PS) | 161
GTTACTGCCTTCTTAC (sugars ldddlddddddldlll, PS) | 162
GTTACTGCCTTCTTAC (sugars ldddlddddddllddl, PS) | 125
GTTACTGCCTTCTTAC (sugars ldddlddddddlldll, PS) | 165
GTTACTGCCTTCTTAC (sugars ldddlddddddllldl, PS) | 261
GTTACTGCCTTCTTAC (sugars lddldddddddddldl, PS) | 121
GTTACTGCCTTCTTAC (sugars lddlddddddddlddl, PS) | 112
GTTACTGCCTTCTTAC (sugars lddlddddddddldll, PS) | 130
GTTACTGCCTTCTTAC (sugars lddlddddddddlldl, PS) | 177
GTTACTGCCTTCTTAC (sugars lddldddddddldddl, PS) | 88.6
GTTACTGCCTTCTTAC (sugars lddldddddddlddll, PS) | 129
GTTACTGCCTTCTTAC (sugars lddldddddddldldl, PS) | 135
GTTACTGCCTTCTTAC (sugars lddldddddddldlll, PS) | 154
GTTACTGCCTTCTTAC (sugars lddldddddddllddl, PS) | 135
GTTACTGCCTTCTTAC (sugars lddldddddddlldll, PS) | 151
GTTACTGCCTTCTTAC (sugars lddldddddddllldl, PS) | 227
GTTACTGCCTTCTTAC (sugars lddllddddddddldl, PS) | 246
GTTACTGCCTTCTTAC (sugars lddlldddddddlddl, PS) | 229
GTTACTGCCTTCTTAC (sugars lddlldddddddldll, PS) | 240
GTTACTGCCTTCTTAC (sugars lddlldddddddlldl, PS) | 374
GTTACTGCCTTCTTAC (sugars lddllddddddldddl, PS) | 188
GTTACTGCCTTCTTAC (sugars lddllddddddlddll, PS) | 218
GTTACTGCCTTCTTAC (sugars lddllddddddldldl, PS) | 207
GTTACTGCCTTCTTAC (sugars lddllddddddldlll, PS) | 237

Sequence | caspase activation (% of PBS control)
GTTACTGCCTTCTTAC (sugars lddllddddddllddl, PS) | 268
GTTACTGCCTTCTTAC (sugars lddllddddddlldll, PS) | 196
GTTACTGCCTTCTTAC (sugars lddllddddddllldl, PS) | 414
GTTACTGCCTTCTTAC (sugars ldlddddddddddldl, PS) | 119
GTTACTGCCTTCTTAC (sugars ldldddddddddlddl, PS) | 118
GTTACTGCCTTCTTAC (sugars ldldddddddddldll, PS) | 112
GTTACTGCCTTCTTAC (sugars ldldddddddddlldl, PS) | 165
GTTACTGCCTTCTTAC (sugars ldlddddddddldddl, PS) | 115
GTTACTGCCTTCTTAC (sugars ldlddddddddlddll, PS) | 130
GTTACTGCCTTCTTAC (sugars ldlddddddddldldl, PS) | 145
GTTACTGCCTTCTTAC (sugars ldlddddddddldlll, PS) | 155
GTTACTGCCTTCTTAC (sugars ldlddddddddllddl, PS) | 158
GTTACTGCCTTCTTAC (sugars ldlddddddddlldll, PS) | 135
GTTACTGCCTTCTTAC (sugars ldlddddddddllldl, PS) | 271
GTTACTGCCTTCTTAC (sugars ldldlddddddddddl, PS) | 175
GTTACTGCCTTCTTAC (sugars ldldldddddddddll, PS) | 151
GTTACTGCCTTCTTAC (sugars ldldlddddddddldl, PS) | 201
GTTACTGCCTTCTTAC (sugars ldldlddddddddlll, PS) | 214
GTTACTGCCTTCTTAC (sugars ldldldddddddlddl, PS) | 220
GTTACTGCCTTCTTAC (sugars ldldldddddddldll, PS) | 214
GTTACTGCCTTCTTAC (sugars ldldldddddddlldl, PS) | 280
GTTACTGCCTTCTTAC (sugars ldldldddddddllll, PS) | 257
GTTACTGCCTTCTTAC (sugars ldldlddddddldddl, PS) | 234
GTTACTGCCTTCTTAC (sugars ldldlddddddlddll, PS) | 220

Sequence | caspase activation (% of PBS control)
GTTACTGCCTTCTTAC (sugars ldldlddddddldldl, PS) | 251
GTTACTGCCTTCTTAC (sugars ldldlddddddldlll, PS) | 231
GTTACTGCCTTCTTAC (sugars ldldlddddddllddl, PS) | 282
GTTACTGCCTTCTTAC (sugars ldldlddddddlldll, PS) | 250
GTTACTGCCTTCTTAC (sugars ldldlddddddllldl, PS) | 354
GTTACTGCCTTCTTAC (sugars ldldlddddddlllll, PS) | 342
GTTACTGCCTTCTTAC (sugars ldlldddddddddldl, PS) | 142
GTTACTGCCTTCTTAC (sugars ldllddddddddlddl, PS) | 183
GTTACTGCCTTCTTAC (sugars ldllddddddddldll, PS) | 181
GTTACTGCCTTCTTAC (sugars ldllddddddddlldl, PS) | 192
GTTACTGCCTTCTTAC (sugars ldlldddddddldddl, PS) | 213
GTTACTGCCTTCTTAC (sugars ldlldddddddlddll, PS) | 191
GTTACTGCCTTCTTAC (sugars ldlldddddddldldl, PS) | 187
GTTACTGCCTTCTTAC (sugars ldlldddddddldlll, PS) | 195
GTTACTGCCTTCTTAC (sugars ldlldddddddllddl, PS) | 255
GTTACTGCCTTCTTAC (sugars ldlldddddddlldll, PS) | 218
GTTACTGCCTTCTTAC (sugars ldlldddddddllldl, PS) | 365
GTTACTGCCTTCTTAC (sugars ldlllddddddddldl, PS) | 438
GTTACTGCCTTCTTAC (sugars ldllldddddddlddl, PS) | 461
GTTACTGCCTTCTTAC (sugars ldllldddddddldll, PS) | 387
GTTACTGCCTTCTTAC (sugars ldllldddddddlldl, PS) | 470
GTTACTGCCTTCTTAC (sugars ldlllddddddldddl, PS) | 453
GTTACTGCCTTCTTAC (sugars ldlllddddddlddll, PS) | 425
GTTACTGCCTTCTTAC (sugars ldlllddddddldldl, PS) | 438

Sequence | caspase activation (% of PBS control)
GTTACTGCCTTCTTAC (sugars ldlllddddddldlll, PS) | 427
GTTACTGCCTTCTTAC (sugars ldlllddddddllddl, PS) | 499
GTTACTGCCTTCTTAC (sugars ldlllddddddlldll, PS) | 410
GTTACTGCCTTCTTAC (sugars ldlllddddddllldl, PS) | 639
GTTACTGCCTTCTTAC (sugars lldddddddddldldl, PS) | 144
GTTACTGCCTTCTTAC (sugars llddlddddddddldl, PS) | 222
GTTACTGCCTTCTTAC (sugars llddldddddddlddl, PS) | 197
GTTACTGCCTTCTTAC (sugars llddldddddddldll, PS) | 218
GTTACTGCCTTCTTAC (sugars llddldddddddlldl, PS) | 330
GTTACTGCCTTCTTAC (sugars llddlddddddldddl, PS) | 191
GTTACTGCCTTCTTAC (sugars llddlddddddlddll, PS) | 193
GTTACTGCCTTCTTAC (sugars llddlddddddldldl, PS) | 235
GTTACTGCCTTCTTAC (sugars llddlddddddldlll, PS) | 220
GTTACTGCCTTCTTAC (sugars llddlddddddllddl, PS) | 231
GTTACTGCCTTCTTAC (sugars llddlddddddlldll, PS) | 208
GTTACTGCCTTCTTAC (sugars llddlddddddllldl, PS) | 373
GTTACTGCCTTCTTAC (sugars lldldddddddddldl, PS) | 138
GTTACTGCCTTCTTAC (sugars lldlddddddddlddl, PS) | 135
GTTACTGCCTTCTTAC (sugars lldlddddddddldll, PS) | 139
GTTACTGCCTTCTTAC (sugars lldlddddddddlldl, PS) | 187
GTTACTGCCTTCTTAC (sugars lldldddddddldddl, PS) | 155
GTTACTGCCTTCTTAC (sugars lldldddddddlddll, PS) | 161
GTTACTGCCTTCTTAC (sugars lldldddddddldldl, PS) | 193
GTTACTGCCTTCTTAC (sugars lldldddddddldlll, PS) | 170
